Laboratory results taken from PubChem BioAssay (NCI).
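How tested: cells in 96-well plates exposed to compound for 48 hours at five concentrations. Here, GI50 denotes the concentration required for 50% inhibition of growth. TGI: concentration producing complete growth inhibition.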

Legend:
Assay in all cases: NCI tumour cell line growth inhibition, 48 h
[1] = system: HT29 colon
[2] = system: SK-OV-3 ovarian
[3] = system: NCI-H522 lung
[4] = system: NCI-H460 lung
[5] = system: SN12C renal
[6] = system: PC-3 prostate
[7] = system: LOX IMVI melanoma
[8] = system: SK-MEL-28 melanoma
[9] = system: OVCAR-5 ovarian
[10] = system: HCT-116 colon
[11] = system: OVCAR-4 ovarian
[12] = system: SK-MEL-5 melanoma
[13] = system: MOLT-4 leukemia
[14] = system: SF-295 CNS
[15] = system: 786-0 renal
[16] = system: CCRF-CEM leukemia
[17] = system: BT-549 breast
[18] = system: K-562 leukemia
[19] = system: HOP-92 NSCLC
[20] = system: SF-268 CNS
[21] = system: SW-620 colon
[22] = system: NCI-H23 lung
[23] = system: HOP-62 NSCLC
[24] = system: OVCAR-8 ovarian
[25] = system: HL-60(TB) leukemia
[26] = system: COLO 205 colon
[27] = system: EKVX NSCLC
[28] = system: OVCAR-3 ovarian
[29] = system: A549 NSCLC
[30] = system: SNB-19 CNS
[31] = system: CAKI-1 renal
[32] = system: RPMI-8226 leukemia
[33] = system: UO-31 renal
[34] = system: HCT-15 colon
[35] = system: T-47D breast
[36] = system: NCI/ADR-RES ovarian
[37] = system: IGROV1 ovarian
[38] = system: ACHN renal
[39] = system: M14 melanoma
[40] = system: MDA-MB-435
[41] = system: DU-145 prostate
[42] = system: MALME-3M melanoma
[43] = system: U251 CNS
[44] = system: A498 renal
[45] = system: MCF7 breast
[46] = system: KM12 colon
[47] = system: RXF 393 renal
[48] = system: MDA-MB-231 breast
[49] = system: HS 578T breast
[50] = system: TK-10 renal
[51] = system: HCC-2998 colon
[52] = system: UACC-257 melanoma
[53] = system: NCI-H226 lung
[54] = system: UACC-62 melanoma
[55] = system: SF-539 CNS
[56] = system: SK-MEL-2 melanoma

SMILES: CCOc1cc2ncc(C#N)c(Nc3ccc(F)c(Cl)c3)c2cc1NC(=O)CC1CCSS1 (configuration not stated)
- GI50 [1]: 603 nM
- TGI [1]: 1200 nM
- GI50 [2]: 509 nM
- TGI [2]: 990 nM
- GI50 [3]: 786 nM
- TGI [3]: 4700 nM
- GI50 [4]: 676 nM
- TGI [4]: 1410 nM
- GI50 [5]: 880 nM
- TGI [5]: 2500 nM
- GI50 [6]: 629 nM
- TGI [6]: 1210 nM
- GI50 [7]: 579 nM
- TGI [7]: 1170 nM
- GI50 [8]: 659 nM
- TGI [8]: 1530 nM
- GI50 [9]: 2100 nM
- TGI [9]: 13500 nM
- GI50 [10]: 630 nM
- TGI [10]: 1270 nM
- GI50 [11]: 663 nM
- TGI [11]: 2350 nM
- GI50 [12]: 3240 nM
- TGI [12]: 7230 nM
- GI50 [13]: 748 nM
- TGI [13]: 1890 nM
- GI50 [14]: 1650 nM
- TGI [14]: 6670 nM
- GI50 [15]: 1840 nM
- TGI [15]: 12900 nM
- GI50 [16]: 792 nM
- TGI [16]: 2060 nM
- GI50 [17]: 1500 nM
- TGI [17]: 7460 nM
- GI50 [18]: 881 nM
- TGI [18]: 2290 nM
- GI50 [19]: 3240 nM
- TGI [19]: 13700 nM
- GI50 [20]: 740 nM
- TGI [20]: 2230 nM
- GI50 [21]: 1040 nM
- TGI [21]: 3570 nM
- GI50 [22]: 1120 nM
- TGI [22]: 4550 nM
- GI50 [23]: 533 nM
- TGI [23]: 1160 nM
- GI50 [24]: 809 nM
- TGI [24]: 1920 nM
- GI50 [25]: 930 nM
- TGI [25]: 4000 nM
- GI50 [26]: 982 nM
- TGI [26]: 3390 nM
- GI50 [27]: 476 nM
- TGI [27]: 1930 nM
- GI50 [28]: 717 nM
- TGI [28]: 2080 nM
- GI50 [29]: 616 nM
- TGI [29]: 1160 nM
- GI50 [30]: 1980 nM
- TGI [30]: 12300 nM
- GI50 [31]: 979 nM
- TGI [31]: 4590 nM
- GI50 [32]: 1640 nM
- TGI [32]: 33300 nM
- GI50 [33]: 395 nM
- TGI [33]: 955 nM
- GI50 [34]: 649 nM
- TGI [34]: 1700 nM
- GI50 [35]: 1380 nM
- TGI [35]: 6920 nM
- GI50 [36]: 751 nM
- TGI [36]: 2040 nM
- GI50 [37]: 392 nM
- TGI [37]: 1630 nM
- GI50 [38]: 429 nM
- TGI [38]: 1150 nM
- GI50 [39]: 572 nM
- TGI [39]: 1330 nM
- GI50 [40]: 597 nM
- TGI [40]: 1230 nM
- GI50 [41]: 580 nM
- TGI [41]: 1280 nM
- GI50 [42]: 1640 nM
- TGI [42]: 6410 nM
- GI50 [43]: 1100 nM
- TGI [43]: 3460 nM
- GI50 [44]: 3050 nM
- TGI [44]: 11400 nM
- GI50 [45]: 694 nM
- TGI [45]: 1900 nM
- GI50 [46]: 563 nM
- TGI [46]: 1130 nM
- GI50 [47]: 1130 nM
- TGI [47]: 3970 nM
- GI50 [48]: 833 nM
- TGI [48]: 2000 nM
- GI50 [49]: 1390 nM
- TGI [49]: 11700 nM
- GI50 [50]: 556 nM
- TGI [50]: 1480 nM
- GI50 [51]: 569 nM
- TGI [51]: 1100 nM
- GI50 [52]: 1960 nM
- TGI [52]: 6920 nM
- GI50 [53]: 2110 nM
- TGI [53]: 7400 nM
- GI50 [54]: 1970 nM
- TGI [54]: 7280 nM
- GI50 [55]: 5000 nM
- TGI [55]: 17400 nM
- GI50 [56]: 697 nM
- TGI [56]: 2000 nM
